According to patent US20240174690A1, “ANNULATED 2-AMINO-3-CYANO THIOPHENES AND DERIVATIVES FOR THE TREATMENT OF CANCER” (BOEHRINGER INGELHEIM INTERNATIONAL GMBH, priority 2021, published 2024):
Read-outs that look alike come from different tables or passages of the source.

Key:
[1] = molecular target: KRAS (WT)::SOS1 (Homo sapiens (Human), UniProt P01116, C118S); assay: KRAS::SOS1 AlphaScreen binding assay, KRAS WT
Excerpt: (§1) This assay can be used to examine the potency with which compounds according to the invention binding to (mutated) KRAS inhibit the protein-protein interaction between SOS1 and (mutated) KRAS e.g., KRAS WT, KRAS G12C, KRAS G12D, KRAS G12V, KRAS G13D. […] Low IC50 values in this assay setting are indicative of strong inhibition of protein-protein interaction between SOS1 and KRAS:
(§2) These assays measure the inhibitory effect of compounds on KRAS mutant protein-protein interactions using the Alpha Screen technology by Perkin Elmer.
(§3) The following (mutant) enzyme forms of KRAS and interacting proteins are used in these assays at the given concentrations: • KRAS (G12D) 1-169, N-terminal 6His-tag, C-terminal avi-tag (Xtal BioStructures, Inc.); final assay concentration 10 nM and SOS1 564-1049, N-terminal 229 GST-tag, TEV cleavage site (Viva Biotech Ltd); final assay concentration 5 nM; • KRAS (G12C) 1-169, N-terminal 6His-tag for purification, cleaved off, C-terminal avi-tag, biotinylated, mutations: C51S, C80L, C118S (in house); final assay concentration 7.5 nM and SOS1 564-1049, N-terminal 229 GST-tag, TEV cleavage site (Viva Biotech Ltd); final assay concentration 5 nM; • KRAS (G12V) 1-169, N-terminal 6His-tag for purification, cleaved off, C-terminal avi-tag, biotinylated, TEV cleavage site, mutation: C118S, GDP loaded (in house); final assay concentration 10 nM and SOS1 564-1049, N-terminal 229 GST-tag, TEV cleavage site (Viva Biotech Ltd); final assay concentration 10 nM; • KRAS (G13D) 1-169, N-terminal 6His-tag for purification, cleaved off, C-terminal avi-tag, biotinylated, TEV cleavage site, mutation: C118S, GDP loaded (in house); final assay concentration 10 nM and SOS1 564-1049, N-terminal 229 GST-tag, TEV cleavage site (Viva Biotech Ltd); final assay concentration 10 nM; • KRAS (WT) 1-169, N-terminal 6His-tag for purification, cleaved off, C-terminal avi-tag, biotinylated, TEV cleavage site, mutation: C118S, GDP loaded (in house); final assay concentration 10 nM and SOS1 564-1049, N-terminal 229 GST-tag, TEV cleavage site (Viva Biotech Ltd); final assay concentration 10 nM.
(§4) Test compounds dissolved in DMSO are dispensed onto assay plates (Proxiplate 384 PLUS, white, PerkinElmer; 6008289) using an Access Labcyte Workstation with the Labcyte Echo 55×. For the chosen highest assay concentration of 100 μM, 150 nL of compound solution are transferred from a 10 mM DMSO compound stock solution. A series of eleven fivefold dilutions per compound are transferred to the assay plate, compound dilutions are tested in duplicates. DMSO are added as backfill to a total volume of 150 nL.
(§5) The assays run on a fully automated robotic system in a darkened room below 100 Lux. To 150 nl of compound dilution 10 μl of a mix including KRAS mutant protein, SOS1 (final assay concentrations see above) and GDP nucleotide (Sigma G7127; final assay concentration 10 μM) in assay buffer (1×PBS, 0.1% BSA, 0.05% Tween 20) are added into columns 1-24.
(§6) After 30 minutes incubation time 5 μl of Alpha Screen bead mix in assay buffer are added into columns 1-23. Bead mix consists of AlphaLISA Glutathione Acceptor Beads (PerkinElmer, Cat No AL109) and AlphaScreen Streptavidin Donor Beads (PerkinElmer Cat No 6760002) in assay buffer at a final assay concentration of 10 μg/ml each.
(§7) Plates are kept at room temperature in a darkened incubator. After an additional 60 minutes incubation time the signal is measured in a PerkinElmer Envision HTS Multilabel Reader using the AlphaScreen specs from PerkinElmer.
(§8) Each plate contains up to 16 wells of a negative control depending on the dilution procedure (platewise or serial) (DMSO instead of test compound; with KRAS mutant::SOS1 GDP mix and bead mix; column 23) and 16 wells of a positive control (DMSO instead of test compound; with KRAS mutant::SOS1 GDP mix w/o bead mix; column 24).
(§9) As internal control known inhibitors of KRAS mutant::SOS1 interaction can be measured on each compound plate. […]

[2] = system: MKN1 cells; assay: MKN1 CTG proliferation assay (120 h) (gastric cancer, wt amplified); format: cell-based; conditions: Homo sapiens
Experimental: MKN1 CTG Proliferation Assay (120 h) (Gastric Cancer, Wt Amplified)
MKN1 cells (JCRB0252) are dispensed into white 384-well plates, flat and white bottom (Corning Costar, PNr.: 3570) at a density of 400 cells per well in 50 μL RPMI 1640 (PAN-Biotech, PNr.: P04-18047)+10% FCS (HyClone, PNr.: SH30084.03) (assay 1) or into white 384-well plates, flat and white bottom (Perkin Elmer, 6007680) at a density of 500 cells per well in 40 μl RPMI (Gibco, PNr.: 21875034)+10% FCS (HyClone, PNr.: SH30084.03) (assay 2) or into black 384-well plates, flat and clear bottom (Greiner, PNr. 781091) at a density of 200 cells per well in 60 μl RPMI-1640 (Gibco #A10491)+10% FCS (HyClone, PNr.: SH30084.03)+PenStrep (Gibco, PNr.15140-122) (assay 3). […] Compounds (10 mM stock in DMSO) are added at logarithmic dose series using the HP Digital Dispenser D300 (Tecan) (assay 1+2) or the ECHO acoustic liquid handler system (Beckman Coulter) (assay 3), including DMSO controls and normalizing for added DMSO. Plates are incubated for 120 h, and cell viability is measured using CellTiter-Glo luminescent cell viability reagent (Promega product code G7570). Viability (stated as percent of control) is defined as relative luminescence units RLU of each well divided by the RLU of cells in DMSO controls. IC50 values are determined from viability measurements by non-linear regression using a four-parameter model.

[3] = molecular target: KRAS (G12V)::SOS1 (Homo sapiens (Human), UniProt P01116, C118S/G12V); assay: KRAS::SOS1 AlphaScreen binding assay, KRAS G12V
Excerpt: as §1, §2, §3, §4, §5, §6, §7, §8, §9

[4] = MKN-1, assay 2, CTG 120 h, read-out: MKN1 (assay 2) IC50
[5] = MKN-1, assay 3, CTG 120 h, read-out: MKN1 (assay 3) IC50

KRAS (WT)::SOS1, sequence (P01116 other isoform, or with tags, fused parts or gaps C118S): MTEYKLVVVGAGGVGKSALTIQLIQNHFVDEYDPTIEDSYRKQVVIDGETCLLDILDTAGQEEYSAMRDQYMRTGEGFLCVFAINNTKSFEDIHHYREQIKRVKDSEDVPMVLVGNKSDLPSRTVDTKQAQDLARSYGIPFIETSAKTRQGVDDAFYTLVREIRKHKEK
KRAS (G12V)::SOS1, sequence (P01116 other isoform, or with tags, fused parts or gaps G12V/C118S): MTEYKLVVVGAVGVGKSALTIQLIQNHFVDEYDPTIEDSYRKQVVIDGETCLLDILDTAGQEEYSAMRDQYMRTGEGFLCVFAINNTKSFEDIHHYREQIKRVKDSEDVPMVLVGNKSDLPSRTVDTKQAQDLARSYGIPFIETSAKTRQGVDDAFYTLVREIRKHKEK

Row | IC50 [1] [nM] | IC50 [2, 4] [nM] | IC50 [2, 5] [nM] | IC50 [3] [nM] | Compound
1 | 5 | – | 994 | – | C[C@H](Oc1cc(-n2cc3c(n2)CCNC3)nc(-c2noc3c2CCC[C@@]32CCCc3sc(N)c(C#N)c32)n1)[C@@H]1CCCN1C [II-53]
2 | 2 | – | – | – | C[C@H](Oc1cc(N2CCNC2=O)nc(-c2noc3c2CCC[C@@]32CCCc3sc(N)c(C#N)c32)n1)[C@@H]1CCCN1C [II-64]
3 | 3 | – | – | – | C[C@H](Oc1cc(-n2ccnc2)nc(-c2noc3c2CCC[C@@]32CCCc3sc(N)c(C#N)c32)n1)[C@@H]1CCCN1C [II-69]
4 | – | – | 387 | – | C[C@H](Oc1cc(-n2cncn2)nc(-c2noc3c2CCC[C@@]32CCCc3sc(N)c(C#N)c32)n1)[C@@H]1CCCN1C [II-70]
5 | 7 | – | 533 | 3 | C[C@H](Oc1cc(-c2ccncc2)nc(-c2noc3c2CCC[C@@]32CCCc3sc(N)c(C#N)c32)n1)[C@@H]1CCCN1C [II-78]
6 | 36 | – | 712 | 9 | C[C@H](Oc1cc(-c2cncnc2)nc(-c2noc3c2CCC[C@@]32CCCc3sc(N)c(C#N)c32)n1)[C@@H]1CCCN1C [II-82]
7 | 5 | – | 266 | 2 | C[C@H](Oc1cc(-c2ccccn2)nc(-c2noc3c2CCC[C@@]32CCCc3sc(N)c(C#N)c32)n1)[C@@H]1CCCN1C [II-85]
8 | 5 | – | – | – | C[C@H](Oc1cc(-c2cnn(C)n2)nc(-c2noc3c2CCC[C@@]32CCCc3sc(N)c(C#N)c32)n1)[C@@H]1CCCN1C [II-86]
9 | – | – | 302 | – | C[C@H](Oc1cc(-c2cn[nH]c2)nc(-c2noc3c2CCC[C@@]32CCCc3sc(N)c(C#N)c32)n1)[C@@H]1CCCN1C [II-87]
10 | – | – | 625 | – | C[C@H](Oc1cc(-c2ccn(-c3ccccc3)n2)nc(-c2noc3c2CCC[C@@]32CCCc3sc(N)c(C#N)c32)n1)[C@@H]1CCCN1C [II-89]
11 | 33 | – | – | 8 | C[C@H](Oc1cc(N2CCc3cccnc32)nc(-c2noc3c2CCC[C@@]32CCCc3sc(N)c(C#N)c32)n1)[C@@H]1CCCN1C [II-90]
12 | 5 | – | – | 2 | C[C@H](Oc1cc(-c2ccn(C)n2)nc(-c2noc3c2CCC[C@@]32CCCc3sc(N)c(C#N)c32)n1)[C@@H]1CCCN1C [II-96]
13 | – | – | 598 | – | C[C@H](Oc1cc(-c2cccc(CO)c2)nc(-c2noc3c2CCC[C@@]32CCCc3sc(N)c(C#N)c32)n1)[C@@H]1CCCN1C [II-97]
14 | 8 | – | – | 2 | C[C@H](Oc1cc(-c2ccc(N)nc2)nc(-c2noc3c2CCC[C@@]32CCCc3sc(N)c(C#N)c32)n1)[C@@H]1CCCN1C [II-101]
15 | 4 | – | – | – | C[C@H](Oc1cc(-c2ccn3ncnc3c2)nc(-c2noc3c2CCC[C@@]32CCCc3sc(N)c(C#N)c32)n1)[C@@H]1CCCN1C [II-104]
16 | 7 | – | – | 3 | C[C@H](Oc1cc(-n2ccc(Br)n2)nc(-c2noc3c2CCC[C@@]32CCCc3sc(N)c(C#N)c32)n1)[C@@H]1CCCN1C [II-110]
17 | 4 | – | – | – | C[C@H](Oc1cc(-c2cnsc2)nc(-c2noc3c2CCC[C@@]32CCCc3sc(N)c(C#N)c32)n1)[C@@H]1CCCN1C [II-111]
18 | 10 | – | – | – | CNC(=O)c1cn(-c2cc(O[C@@H](C)[C@@H]3CCCN3C)nc(-c3noc4c3CCC[C@@]43CCCc4sc(N)c(C#N)c43)n2)nn1 [II-122]
19 | 11 | – | – | – | C[C@H](Oc1cc(-n2cc(-c3cccnc3)nn2)nc(-c2noc3c2CCC[C@@]32CCCc3sc(N)c(C#N)c32)n1)[C@@H]1CCCN1C [II-123]

The remaining lines, values behind:

Row | Compound | IC50 [1] [nM] | IC50 [2, 4] [nM] | IC50 [2, 5] [nM] | IC50 [3] [nM]
20 | C[C@H](Oc1cc(N2CCNC3(CC3)C2)nc(-c2onc3c2CCC[C@@]32CCCc3sc(N)c(C#N)c32)n1)[C@@H]1CCCN1C [I-5] | 4 | 499 | – | –
21 | C[C@H](Oc1cc(N2C[C@H](C)NC3(CC3)C2)nc(-c2onc3c2CCC[C@@]32CCCc3sc(N)c(C#N)c32)n1)[C@@H]1CCCN1C [I-8] | – | – | 395 | –
22 | C[C@H](Oc1cc(N2CC[C@H](N(C)C)C2)nc(-c2noc3c2CCC[C@@]32CCCc3sc(N)c(C#N)c32)n1)[C@@H]1CCCN1C [II-49] | 20 | > 3000 | 501 | 54
23 | C[C@H](Oc1cc(N2CCNC3(CC3)C2)nc(-c2noc3c2CCC[C@@]32CCCc3sc(N)c(C#N)c32)n1)[C@@H]1CCCN1C [II-54] | 3 | – | – | 9
24 | C[C@H](Oc1cc(N2CCN(C)CC2)nc(-c2noc3c2CCC[C@@]32CCCc3sc(N)c(C#N)c32)n1)[C@@H]1CCCN1C [II-55] | 10 | – | 876 | 11
25 | C[C@H](Oc1cc(N2C[C@H](C)N[C@@H](C)C2)nc(-c2noc3c2CCC[C@@]32CCCc3sc(N)c(C#N)c32)n1)[C@@H]1CCCN1C [II-56] | – | – | 660 | –
26 | C[C@H](Oc1cc(N2Cc3cnn(C)c3C2)nc(-c2noc3c2CCC[C@@]32CCCc3sc(N)c(C#N)c32)n1)[C@@H]1CCCN1C [II-63] | – | – | 578 | –
27 | C[C@H](Oc1cc(N2CCCC3(COC3)C2)nc(-c2noc3c2CCC[C@@]32CCCc3sc(N)c(C#N)c32)n1)[C@@H]1CCCN1C [II-72] | – | – | 68 | –
28 | C[C@H](Oc1cc(N2CCN(C)C2=O)nc(-c2noc3c2CCC[C@@]32CCCc3sc(N)c(C#N)c32)n1)[C@@H]1CCCN1C [II-75] | – | – | 108 | –
29 | C[C@H](Oc1cc(N2CCOC3(COC3)C2)nc(-c2noc3c2CCC[C@@]32CCCc3sc(N)c(C#N)c32)n1)[C@@H]1CCCN1C [II-77] | 4 | – | 18 | –
30 | CO[C@@H]1C[C@@H]([C@H](C)Oc2cc(-c3ccn(C)n3)nc(-c3noc4c3CCC[C@@]43CCCc4sc(N)c(C#N)c43)n2)N(C)C1 [II-91] | – | – | 247 | –
31 | COC(=O)c1ccc(-c2cc(O[C@@H](C)[C@@H]3CCCN3C)nc(-c3noc4c3CCC[C@@]43CCCc4sc(N)c(C#N)c43)n2)o1 [II-114] | – | – | 358 | –
32 | C[C@H](Oc1cc(-n2ccnc2)nc(-c2noc3c2CCC[C@@]32CCCc3sc(N)c(C#N)c32)n1)[C@@H]1C[C@@H](F)CN1C [II-120] | – | – | 234 | 5
